Values joined by “and” are separate entries in the source; they are usually repeats but may differ in a detail not shown here. Identical values can stand only once. Inconclusive results and toxic doses are left out.
Test system: B6C3F1 mice, B16 melanoma ip, median survival T/C
Assay: NCI In Vivo Anticancer Drug Screen. Data for tumor model B16 Melanoma (intraperitoneal) in B6C3F1 mice
Conditions: endpoint: median survival time, higher = longer survival
Procedure, shortened: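 Mice bearing transplanted tumor were dosed with compound or vehicle, and survival was recorded. Activity is expressed as the treated-group measurement (T) divided by the vehicle control measurement (C).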

[1] = dose: 50.0 mg/kg/injection, schedule: Q01DX009 (ip), vehicle: saline + alcohol
[2] = dose: 400.0 mg/kg/injection, schedule: Q01DX009 (ip), vehicle: saline + alcohol
[3] = dose: 6.25 mg/kg/injection, schedule: Q01DX009 (ip), vehicle: saline
[4] = dose: 12.5 mg/kg/injection, schedule: Q01DX009 (ip), vehicle: saline
[5] = dose: 25.0 mg/kg/injection, schedule: Q01DX009 (ip), vehicle: saline
[6] = dose: 50.0 mg/kg/injection, schedule: Q01DX009 (ip), vehicle: saline
[7] = dose: 12.5 mg/kg/injection, schedule: Q01DX009 (ip), vehicle: saline with Tween-80
[8] = dose: 25.0 mg/kg/injection, schedule: Q01DX009 (ip), vehicle: saline with Tween-80
[9] = dose: 50.0 mg/kg/injection, schedule: Q01DX009 (ip), vehicle: saline with Tween-80
[10] = dose: 100.0 mg/kg/injection, schedule: Q01DX009 (ip), vehicle: saline with Tween-80
[11] = dose: 200.0 mg/kg/injection, schedule: Q01DX009 (ip), vehicle: saline with Tween-80
[12] = dose: 6.25 mg/kg/injection, schedule: Q01DX009 (ip), vehicle: water
[13] = dose: 25.0 mg/kg/injection, schedule: Q01DX009 (ip), vehicle: distilled water + Tween-80
[14] = dose: 200.0 mg/kg/injection, schedule: Q01DX009 (ip), vehicle: distilled water + Tween-80

For `CC[C@H](CC[C@@H](C)[C@H]1CC[C@H]2[C@@H]3CC=C4C[C@@H](OC(C)=O)CC[C@]4(C)[C@H]3CC[C@]12C)C(C)C`, the T/C (dose: 12.5 mg/kg/injection, schedule: Q01DX009 (ip), vehicle: Klucel (hydroxypropylcellulose) (HPC)) was 95 % of control.
In the case of `OC1CSC1`, the T/C [1] is reported as 109 % of control, the T/C (dose: 100.0 mg/kg/injection, schedule: Q01DX009 (ip), vehicle: saline + alcohol) is reported as 107 % of control and the T/C (dose: 200.0 mg/kg/injection, schedule: Q01DX009 (ip), vehicle: saline + alcohol) is reported as 113 % of control. The T/C [2] was 112 % of control.
`CCN(CC)CCNc1ccc(C)c2sc3ccccc3c(=O)c12` was tested, and the T/C [3] was 103 % of control, the T/C [4] was 100 % of control and the T/C [5] was 104 % of control. The T/C [6] was 104 % of control and the T/C (dose: 100.0 mg/kg/injection, schedule: Q01DX009 (ip), vehicle: saline) was 118 % of control.
`CCN(CC)Cc1cc2[nH]c3c4ccc(Cl)cc4ncc3c2cc1OC` was tested, and the T/C [7] was 91 % of control and 102 % of control, the T/C [8] was 112 % of control and 102 % of control and the T/C [9] was 98 % of control and 107 % of control.
`CCCCCCCCCCCCN1C(C)=CS/C1=C\C=C\c1scc(C)[n+]1CCCCCCCCCCCC` was tested, and the T/C (dose: 0.78 mg/kg/injection, schedule: Q01DX009 (ip), vehicle: saline with Tween-80) was 99 % of control and 108 % of control, the T/C (dose: 1.56 mg/kg/injection, schedule: Q01DX009 (ip), vehicle: saline with Tween-80) was 99 % of control and 105 % of control and the T/C (dose: 3.12 mg/kg/injection, schedule: Q01DX009 (ip), vehicle: saline with Tween-80) was 108 % of control.
With `N[C@@H](C[C@H]1CCC(=O)[C@@H]2O[C@H]12)C(=O)O` the T/C (dose: 25.0 mg/kg/injection, schedule: Q01DX009 (ip), vehicle: saline + alcohol) was 99 % of control, the T/C [1] was 110 % of control and the T/C [2] was 155 % of control.
For `CC(/C=C/c1ccccc1)=Nc1ccccc1`, the T/C [7] was 99 % of control, the T/C [8] was 102 % of control and the T/C [9] was 99 % of control. The T/C [10] was 115 % of control and the T/C [11] was 110 % of control.
With `N#Cc1ccc(NN=O)nc1` the T/C (dose: 3.12 mg/kg/injection, schedule: Q01DX009 (ip), vehicle: water) was 102 % of control, the T/C (dose: 3.13 mg/kg/injection, schedule: Q01DX009 (ip), vehicle: water) was 119 % of control and the T/C (dose: 4.5 mg/kg/injection, schedule: Q01DX009 (ip), vehicle: saline) was 117 % of control. The T/C [12] was 113 % of control and 122 % of control, the T/C (dose: 7.5 mg/kg/injection, schedule: Q01DX009 (ip), vehicle: saline) was 108 % of control and the T/C (dose: 20.83 mg/kg/injection, schedule: Q01DX009 (ip), vehicle: saline) was 123 % of control. For the same molecule, the T/C (dose: 34.72 mg/kg/injection, schedule: Q01DX009 (ip), vehicle: saline) was 120 % of control.
`Nc1nc([Se]c2nc(N)nc3c2ncn3C2OC(CO)C(O)C2O)c2ncn(C3OC(CO)C(O)C3O)c2n1` (stereo not drawn) was tested, and the T/C [13] was 108 % of control, the T/C (dose: 50.0 mg/kg/injection, schedule: Q01DX009 (ip), vehicle: distilled water + Tween-80) was 112 % of control and the T/C (dose: 100.0 mg/kg/injection, schedule: Q01DX009 (ip), vehicle: distilled water + Tween-80) was 89 % of control. For the same molecule, the T/C [14] was 87 % of control.
For `CC(Cc1ccc(O)cc1)NCC(O)c1ccc(O)c(O)c1` (stereo not drawn), the T/C [7] was 97 % of control, the T/C [8] was 92 % of control and the T/C [9] was 100 % of control. The T/C [10] was 101 % of control, the T/C [11] was 101 % of control and the T/C (dose: 400.0 mg/kg/injection, schedule: Q01DX009 (ip), vehicle: saline with Tween-80) was 111 % of control.
For `Nc1ncnc2c1c1c(=O)[nH]c(=O)[nH]c1n2C1OC(CO)C(O)C1O` (stereo not drawn), the T/C [13] was 123 % of control and the T/C [14] was 172 % of control.
`CCCCC(NC(=O)OCc1ccccc1)C(=O)NC(Cc1c[nH]c2ccccc12)C(=O)O` (stereo not drawn) was tested, and the T/C (dose: 200.0 mg/kg/injection, schedule: Q01DX009 (ip), vehicle: Klucel (hydroxypropylcellulose) (HPC)) was 103 % of control.
In the case of `Nc1ncnc2c1ncn2C1OCC(O)C1O` (stereo not drawn), the T/C [4] is reported as 118 % of control, the T/C [5] is reported as 121 % of control and the T/C (dose: 100.0 mg/kg/injection, schedule: Q01DX009 (ip), vehicle: suspension in saline) is reported as 124 % of control.
`O=C(O)CC1C(=O)OC2C3COC(=O)c4cc(O)c(O)c(O)c4-c4c(cc(O)c(O)c4O)C(=O)OC2C(OC(=O)c2cc(O)c(O)c4c2C1C(O)C(=O)O4)C(OC(=O)c1cc(O)c(O)c(O)c1)O3` (stereo not drawn) was tested, and the T/C [3] was 94 % of control, the T/C [4] was 99 % of control and the T/C [5] was 100 % of control. The T/C [6] was 88 % of control.
For `O=S(=O)(CCl)OCCCl`, the T/C (dose: 6.25 mg/kg/injection, schedule: Q01DX009 (ip), vehicle: saline with Tween-80) was 97 % of control and 100 % of control, the T/C [7] was 108 % of control and 113 % of control and 103 % of control and the T/C [8] was 114 % of control and 115 % of control and 102 % of control. For the same molecule, the T/C [9] was 109 % of control and 100 % of control and the T/C [10] was 110 % of control.
For `O=C(Nc1ccccc1)c1c(O)[nH]c(=S)[nH]c1=O`, the T/C (dose: 6.0 mg/kg/injection, schedule: Q01DX009 (ip), vehicle: saline with Tween-80) was 108 % of control, the T/C [7] was 114 % of control and 115 % of control and the T/C (dose: 44.0 mg/kg/injection, schedule: Q01DX009 (ip), vehicle: saline with Tween-80) was 153 % of control. For the same molecule, the T/C (dose: 56.0 mg/kg/injection, schedule: Q01DX009 (oral), vehicle: saline with Tween-80) was 111 % of control, the T/C (dose: 67.0 mg/kg/injection, schedule: Q01DX009 (ip), vehicle: saline with Tween-80) was 161 % of control and the T/C (dose: 83.0 mg/kg/injection, schedule: Q01DX009 (oral), vehicle: saline with Tween-80) was 117 % of control. For the same molecule, the T/C (dose: 100.0 mg/kg/injection, schedule: Q01DX005 (oral), vehicle: saline with Tween-80) was 110 % of control, the T/C (dose: 124.0 mg/kg/injection, schedule: Q01DX009 (oral), vehicle: saline with Tween-80) was 114 % of control and the T/C (dose: 149.0 mg/kg/injection, schedule: Q01DX005 (oral), vehicle: saline with Tween-80) was 118 % of control. For the same molecule, the T/C (dose: 185.0 mg/kg/injection, schedule: Q01DX009 (oral), vehicle: saline with Tween-80) was 121 % of control, the T/C (dose: 223.0 mg/kg/injection, schedule: Q01DX005 (oral), vehicle: saline with Tween-80) was 114 % of control and the T/C (dose: 333.0 mg/kg/injection, schedule: Q01DX005 (oral), vehicle: saline with Tween-80) was 116 % of control.
In the case of `O=C1c2ccccc2C(=O)c2c(NCCNCCO)ccc(NCCNCCO)c21`, the T/C (dose: 1.0 mg/kg/injection, schedule: Q01DX009 (ip), vehicle: other) is reported as 151 % of control, the T/C (dose: 2.0 mg/kg/injection, schedule: Q01DX009 (ip), vehicle: other) is reported as 180 % of control and 186 % of control and the T/C (dose: 2.5 mg/kg/injection, schedule: Q01DX009 (ip), vehicle: water) is reported as 195 % of control. For the same molecule, the T/C (dose: 4.0 mg/kg/injection, schedule: Q01DX009 (ip), vehicle: other) was 195 % of control and 248 % of control, the T/C (dose: 4.0 mg/kg/injection, schedule: Q01DX009 (ip), vehicle: saline) was 179 % of control and the T/C (dose: 5.0 mg/kg/injection, schedule: Q01DX009 (ip), vehicle: water) was 205 % of control. The T/C (dose: 8.0 mg/kg/injection, schedule: Q01DX009 (ip), vehicle: other) was 218 % of control and 243 % of control, the T/C (dose: 8.0 mg/kg/injection, schedule: Q01DX009 (ip), vehicle: saline) was 234 % of control and the T/C (dose: 10.0 mg/kg/injection, schedule: Q01DX009 (ip), vehicle: water) was 215 % of control. The T/C (dose: 16.0 mg/kg/injection, schedule: Q01DX009 (ip), vehicle: other) was 215 % of control and 231 % of control, the T/C (dose: 16.0 mg/kg/injection, schedule: Q01DX009 (ip), vehicle: saline) was 292 % of control and the T/C (dose: 20.0 mg/kg/injection, schedule: Q01DX009 (ip), vehicle: water) was 220 % of control. The T/C (dose: 32.0 mg/kg/injection, schedule: Q01DX009 (ip), vehicle: saline) was 292 % of control and the T/C (dose: 62.5 mg/kg/injection, schedule: Q01DX001 (ip), vehicle: saline) was 153 % of control.
For `C=C(C)C(=O)OC1C/C(CO)=C\C(O)C/C(C)=C/C2OC(=O)C(=C)C21` (stereo not drawn), the T/C (dose: 1.25 mg/kg/injection, schedule: Q01DX009 (ip), vehicle: saline + alcohol) was 101 % of control, the T/C (dose: 2.5 mg/kg/injection, schedule: Q01DX009 (ip), vehicle: saline + alcohol) was 100 % of control and the T/C (dose: 5.0 mg/kg/injection, schedule: Q01DX009 (ip), vehicle: saline + alcohol) was 114 % of control. For the same molecule, the T/C (dose: 10.0 mg/kg/injection, schedule: Q01DX009 (ip), vehicle: saline + alcohol) was 112 % of control.
In the case of `CCC1OC(OC)C=CC1=O` (stereo not drawn), the T/C [4] is reported as 106 % of control, the T/C [5] is reported as 108 % of control and the T/C [6] is reported as 104 % of control.
`CNC(=O)c1cccc2c(Nc3ccc(NS(C)(=O)=O)cc3OC)c3cccc(C)c3nc12` was tested, and the T/C (dose: 0.75 mg/kg/injection, schedule: Q01DX009 (ip), vehicle: water) was 116 % of control, the T/C (dose: 0.78 mg/kg/injection, schedule: Q01DX009 (ip), vehicle: water) was 114 % of control and the T/C (dose: 3.0 mg/kg/injection, schedule: Q01DX009 (ip), vehicle: water) was 168 % of control. For the same molecule, the T/C [12] was 106 % of control.
